According to PMC8950663, “Cyanobacteria Secondary Metabolites as Biotechnological Ingredients in Natural Anti-Aging Cosmetics: Potential to Overcome Hyperpigmentation, Loss of Skin Density and UV Radiation-Deleterious Effects” (Marine Drugs, 2022):

Target: T1, hyaluronidase (HAase)
T1 construct: gene SPAM1
Test: colorimetric DMAB end-point assay of hyaluronic acid degradation, […] nm
Format: biochemical
Settings: hyaluronic acid substrate (0.7 mg/mL stock), 37 °C, 30 min; positive control

O=C(O)c1cc(=O)c2c(OCC(O)COc3cccc4oc(C(=O)O)cc(=O)c34)cccc2o1 [di-sodium cromoglicate]
IC50: 1105 µg/mL
